According to PMC11945486, “TAS1R2/TAS1R3 Single-Nucleotide Polymorphisms Affect Sweet Taste Receptor Activation by Sweeteners: The SWEET Project” (Nutrients, 2025):
Read-outs that look alike come from different tables or passages of the source. No end group written: not given here.

T1: human TAS1R2-C9S/TAS1R3-WT (Homo sapiens, UniProt Q7RTX0+Q8TE23)
T1 construct: expressed in transfected cells; host or cells: HEK293T-Gα16gust44
T1 sequence (Q8TE23 20-839): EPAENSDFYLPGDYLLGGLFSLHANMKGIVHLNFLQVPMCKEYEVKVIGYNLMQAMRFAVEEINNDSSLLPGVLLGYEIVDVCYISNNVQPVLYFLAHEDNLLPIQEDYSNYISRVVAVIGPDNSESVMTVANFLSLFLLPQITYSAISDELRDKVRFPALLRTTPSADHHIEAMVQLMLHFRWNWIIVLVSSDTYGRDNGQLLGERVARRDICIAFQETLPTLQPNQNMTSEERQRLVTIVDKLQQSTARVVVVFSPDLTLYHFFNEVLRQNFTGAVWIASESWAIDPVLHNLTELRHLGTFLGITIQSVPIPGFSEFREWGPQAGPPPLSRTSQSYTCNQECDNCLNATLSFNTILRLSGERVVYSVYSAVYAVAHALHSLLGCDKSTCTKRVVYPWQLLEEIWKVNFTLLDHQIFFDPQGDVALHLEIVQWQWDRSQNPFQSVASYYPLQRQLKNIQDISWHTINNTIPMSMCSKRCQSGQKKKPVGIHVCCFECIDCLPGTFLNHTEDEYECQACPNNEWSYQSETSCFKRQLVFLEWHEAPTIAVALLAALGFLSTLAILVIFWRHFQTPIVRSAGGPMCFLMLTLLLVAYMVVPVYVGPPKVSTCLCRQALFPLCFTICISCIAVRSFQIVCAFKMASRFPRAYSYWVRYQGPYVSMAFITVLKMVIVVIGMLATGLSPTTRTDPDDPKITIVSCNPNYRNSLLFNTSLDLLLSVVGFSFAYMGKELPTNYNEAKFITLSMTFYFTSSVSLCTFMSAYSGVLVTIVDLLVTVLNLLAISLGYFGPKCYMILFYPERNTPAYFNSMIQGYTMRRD
T1 sequence (Q7RTX0 21-852): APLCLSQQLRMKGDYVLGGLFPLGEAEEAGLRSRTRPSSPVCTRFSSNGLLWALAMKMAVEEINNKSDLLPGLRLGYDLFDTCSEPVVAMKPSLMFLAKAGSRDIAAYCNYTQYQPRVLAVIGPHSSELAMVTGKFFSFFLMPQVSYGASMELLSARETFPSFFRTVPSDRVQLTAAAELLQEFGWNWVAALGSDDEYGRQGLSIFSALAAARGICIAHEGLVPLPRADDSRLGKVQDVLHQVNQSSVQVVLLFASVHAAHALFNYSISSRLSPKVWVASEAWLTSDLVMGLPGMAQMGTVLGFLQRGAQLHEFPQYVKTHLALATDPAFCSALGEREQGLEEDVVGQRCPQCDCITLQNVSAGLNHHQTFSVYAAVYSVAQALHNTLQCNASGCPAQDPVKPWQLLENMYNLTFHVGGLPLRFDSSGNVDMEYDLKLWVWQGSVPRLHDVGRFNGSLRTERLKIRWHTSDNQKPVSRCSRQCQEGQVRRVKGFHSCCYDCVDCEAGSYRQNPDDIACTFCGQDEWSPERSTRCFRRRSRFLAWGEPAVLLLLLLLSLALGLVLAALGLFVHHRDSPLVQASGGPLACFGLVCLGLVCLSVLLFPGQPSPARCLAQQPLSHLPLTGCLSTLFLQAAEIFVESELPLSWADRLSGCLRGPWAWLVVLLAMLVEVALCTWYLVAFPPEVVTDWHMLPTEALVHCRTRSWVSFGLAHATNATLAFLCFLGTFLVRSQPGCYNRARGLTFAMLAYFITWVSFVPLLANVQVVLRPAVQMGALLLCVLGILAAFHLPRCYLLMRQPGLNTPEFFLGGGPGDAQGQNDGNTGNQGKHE

T2: human TAS1R2-WT/TAS1R3-WT (Homo sapiens, UniProt Q7RTX0+Q8TE23)
T2 construct: expressed in transfected cells; host or cells: HEK293T-Gα16gust44
T2 sequence (Q8TE23 20-839): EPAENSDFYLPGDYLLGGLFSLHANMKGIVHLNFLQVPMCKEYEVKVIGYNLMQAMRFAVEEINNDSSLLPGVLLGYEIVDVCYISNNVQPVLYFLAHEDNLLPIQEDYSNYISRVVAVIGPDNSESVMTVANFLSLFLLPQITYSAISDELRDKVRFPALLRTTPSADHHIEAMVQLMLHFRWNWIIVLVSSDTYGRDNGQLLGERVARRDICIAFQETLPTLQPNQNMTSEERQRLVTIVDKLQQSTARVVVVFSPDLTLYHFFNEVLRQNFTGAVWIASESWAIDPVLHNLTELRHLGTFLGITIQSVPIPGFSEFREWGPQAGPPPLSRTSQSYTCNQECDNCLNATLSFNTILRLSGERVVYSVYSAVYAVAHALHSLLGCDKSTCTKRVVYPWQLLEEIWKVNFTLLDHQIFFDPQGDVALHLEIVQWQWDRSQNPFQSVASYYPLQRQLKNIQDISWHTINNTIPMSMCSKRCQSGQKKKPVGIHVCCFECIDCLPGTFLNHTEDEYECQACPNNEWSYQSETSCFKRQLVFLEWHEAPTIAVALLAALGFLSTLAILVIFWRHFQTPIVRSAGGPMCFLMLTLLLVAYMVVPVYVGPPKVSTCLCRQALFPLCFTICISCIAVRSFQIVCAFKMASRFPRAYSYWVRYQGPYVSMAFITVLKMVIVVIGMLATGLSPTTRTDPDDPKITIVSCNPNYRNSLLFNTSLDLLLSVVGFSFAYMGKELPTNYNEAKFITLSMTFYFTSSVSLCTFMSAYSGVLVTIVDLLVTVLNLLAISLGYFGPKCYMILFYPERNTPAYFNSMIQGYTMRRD
T2 sequence (Q7RTX0 21-852): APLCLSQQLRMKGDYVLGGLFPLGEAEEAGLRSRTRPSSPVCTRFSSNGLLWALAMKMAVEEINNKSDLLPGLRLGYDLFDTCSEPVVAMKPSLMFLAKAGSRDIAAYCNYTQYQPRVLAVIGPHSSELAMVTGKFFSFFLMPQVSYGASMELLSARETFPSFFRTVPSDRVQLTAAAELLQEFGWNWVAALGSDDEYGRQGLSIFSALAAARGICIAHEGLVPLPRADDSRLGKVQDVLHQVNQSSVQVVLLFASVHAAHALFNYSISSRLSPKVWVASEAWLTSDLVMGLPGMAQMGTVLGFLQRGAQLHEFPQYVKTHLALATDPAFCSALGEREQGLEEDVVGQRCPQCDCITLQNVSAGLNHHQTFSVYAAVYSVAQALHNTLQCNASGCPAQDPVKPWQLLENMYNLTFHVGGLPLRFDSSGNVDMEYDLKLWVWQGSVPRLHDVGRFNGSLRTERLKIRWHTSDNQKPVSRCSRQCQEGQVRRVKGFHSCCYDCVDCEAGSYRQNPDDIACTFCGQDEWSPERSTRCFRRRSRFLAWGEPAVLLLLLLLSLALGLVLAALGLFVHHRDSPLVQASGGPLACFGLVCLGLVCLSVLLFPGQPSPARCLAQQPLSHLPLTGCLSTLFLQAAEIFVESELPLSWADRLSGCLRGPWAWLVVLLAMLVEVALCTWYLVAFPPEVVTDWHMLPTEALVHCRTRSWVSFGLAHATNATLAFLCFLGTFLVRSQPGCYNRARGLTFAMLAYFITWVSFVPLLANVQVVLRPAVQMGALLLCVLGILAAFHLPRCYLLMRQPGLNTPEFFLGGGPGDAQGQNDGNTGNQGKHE


Legend:
[1] = target: T1, human TAS1R2-C9S/TAS1R3-WT; test: Calcium mobilisation assay, TAS1R2 variant C9S with TAS1R3-WT; type: cell-based; conditions: for Max ΔF/F0: maximal signal amplitude
Source text: (§1) The coding sequences for TAS1R2 and TAS1R3 were commercially synthesised, and the human codon was optimised for expression in human cells. The coding sequences of human TAS1R2 and TAS1R3 were subcloned and inserted into the mammalian expression vectors pcDNA6/myc-HisA and pcDNA4/myc-HisA (Invitrogen; Thermo Fisher Scientific; Illkirch, France) between the EcoRI and NotI restriction sites, generating the plasmids pcDNA6-TAS1R2 and pcDNA4-TAS1R3, respectively. To increase protein expression in mammalian cells, an upstream start codon was used, which was a sequence called MAX, corresponding to the QBI SP163 element also described in pcDNA4-HisMax (Invitrogen; Thermo Fisher Scientific; Illkirch, France). To measure the expression level of the receptor by immunohistochemistry, we used the FLAG sequence ([…]) in the C-terminal position, which encodes the FLAG tag epitope. SNP variants of TAS1R2 and TAS1R3 were constructed based on […], respectively, using site-directed mutagenesis (Genewiz; Leipzig, Germany).
(§2) The HEK293T cells were kindly provided by Jay P. Slack (Givaudan Flavors Corporation; Cincinnati, OH, USA). HEK293T cells stably transfected with Gα16gust44 [43, 67] were seeded in poly-D-lysine-coated clear-bottom black 96-well plates (0.35 × 10^5 cells/well) in high-glucose DMEM supplemented with 2 mM GlutaMAX, 10% dialysed foetal bovine serum with penicillin/streptomycin and G418 (400 μg/mL) at 37 °C and 6.3% CO2 in a humidified atmosphere as previously reported. […] As a negative control, HEK293T cells were mock-transfected with the empty expression vector. After a further 24 h of incubation, the HEK293T cells were washed with C1 buffer (130 mM NaCl, 5 mM KCl, 10 mM HEPES pH 7.4 and 2 mM CaCl2). The 96-well plates containing the cells were then stimulated with sweet-tasting compounds. […] Different concentration ranges were tested depending on the sweet compound injected. The Ca^2+ changes were expressed as fractional changes in fluorescent light intensity: ΔF/F = (F − F0)/F0, where F was the fluorescent light intensity at each point, and F0 was the value of emitted fluorescent light prior to stimulus application. To calculate dose–response relationships, the changes in fluorescence upon stimulus application were averaged, mock-subtracted and baseline-corrected. The dose–response data obtained were adjusted using a 4-parameter logistic equation. The half-maximal effective concentrations (EC50 values) and maximal signal amplitudes were calculated using SigmaPlot software (version 15.0) (Systat Software; San Jose, CA, USA).
(§3) For in vitro calcium mobilisation assay performed on hTAS1R2-SNPs, hTAS1R3-SNPs and mTAS1R3-I60T, 6 to 7 concentrations were tested for each sweet compound, plus buffer alone. All concentration–receptor combinations were measured in duplicate, and each experiment was repeated at least 4 times (8 wells/concentration). Results were expressed for each concentration as ΔF/F mean ± SEM and represented as dose–response curves.

[2] = target: T2, human TAS1R2-WT/TAS1R3-WT; test: Calcium mobilisation assay, HEK293T-Gα16gust44 cells, human sweet taste receptor WT; type: cell-based; conditions: for Max ΔF/F0: maximal signal amplitude
Source text: as §1, §2, §3

[3] = TAS1R2-WT + TAS1R3-WT, read-out: EC50
[4] = TAS1R2-WT/TAS1R3-WT, read-out: EC50

Molecule	EC50 [1] [µM]	R1 = Variant EC50/WT EC50 [1]	Max ΔF/F0 [1]	R1 = Variant EC50/WT EC50 ([2]; TAS1R2-WT + TAS1R3-WT)	Max ΔF/F0 ([2]; TAS1R2-WT + TAS1R3-WT)	EC50 [2, 3] [µM]	R1 = Variant EC50/WT EC50 ([2]; TAS1R2-WT/TAS1R3-WT)	Max ΔF/F0 ([2]; TAS1R2-WT/TAS1R3-WT)	EC50 [2, 4] [µM]	EC50 ([2]; TAS1R2-WT/TAS1R3-WT, brazzein) [µg/mL]
C=C1C[C@@]23CC[C@H]4[C@@](C)(CCC[C@@]4(C)C(=O)O[C@@H]4O[C@H](CO)[C@@H](O)[C@H](O[C@@H]5O[C@H](CO)[C@@H](O)[C@H](O)[C@H]5O)[C@H]4O[C@@H]4O[C@H](CO)[C@@H](O)[C@H](O)[C@H]4O)[C@@H]2CC[C@]1(O[C@@H]1O[C@H](CO)[C@@H](O)[C@H](O[C@@H]2O[C@H](CO)[C@@H](O)[C@H](O)[C@H]2O)[C@H]1O[C@@H]1O[C@H](CO)[C@@H](O)[C@H](O)[C@H]1O)C3 [Rebaudioside M, rebaudioside M]	23.7 ± 1.6	1.4	1.18 ± 0.03	1.0	1.12 ± 0.01	16.9 ± 0.5	1.0	0.69 ± 0.02	40.4 ± 2.9	
brazzein (QDKCKKVYENYPVSKCQLANQCNYDCKLDKHARSGECFYDEKRNLQCICDYCEY; ends and bridges not checked; cysteine pairing not given here; UniProt P56552 1-54, looked up) [sweet-tasting protein obtained by recombinant production using the yeast Pichia pastoris]		1.2	1.14 ± 0.03	1.0	1.17 ± 0.04		1.0	0.88 ± 0.03		112.8 ± 11.2
thaumatin (protein, Eight disulfides, sweet-tasting plant protein, E957) ATFEIVNRCSYTVWAAASKGDAALDAGGRQLNSGESWTINVEPGTKGGKIWARTDCYFDDSGSGICKTGDCGGLLRCKRFGRPPTTLAEFSLNQYGKDYIDISNIKGFNVPMDFSPTTRGCRGVRCAADIVGQCPAKLKAPGGGCNDACTVFQTSEYCCTTGKCGPTEYSRFFKRLCPDAFSYVLDKPTTVTCPGSSNYRVTFCPTA	6.6 ± 0.1					7.6 ± 0.3			10.4 ± 0.6	

The remaining lines, values ahead:

EC50 [1] [µM]	R1 = Variant EC50/WT EC50 [1]	Max ΔF/F0 [1]	R1 = Variant EC50/WT EC50 ([2]; TAS1R2-WT + TAS1R3-WT)	Max ΔF/F0 ([2]; TAS1R2-WT + TAS1R3-WT)	EC50 [2, 3] [µM]	R1 = Variant EC50/WT EC50 ([2]; TAS1R2-WT/TAS1R3-WT)	Max ΔF/F0 ([2]; TAS1R2-WT/TAS1R3-WT)	EC50 [2, 4] [µM]	EC50 ([2]; TAS1R2-WT/TAS1R3-WT, brazzein) [µg/mL]	Molecule
17.8 ± 1.2	1.0	1.29 ± 0.03	1.0	1.47 ± 0.07	17.5 ± 2.2	1.0	1.51 ± 0.22	13.8 ± 6.3		C=C(C)[C@@H]1CC=C(/C=N/O)CC1 [Perillartine, perillartine]
88 ± 15	1.0	0.72 ± 0.05	1.0	0.59 ± 0.03	90 ± 11	1.0	0.65 ± 0.01	109 ± 4		OC[C@H]1O[C@H](O[C@]2(CCl)O[C@H](CCl)[C@@H](O)[C@@H]2O)[C@H](O)[C@@H](O)[C@H]1Cl [Sucralose]
	0.9	0.61 ± 0.01	1.0	0.72 ± 0.01		1.0	0.57 ± 0.02			thaumatin
